Experimental data taken from patent EP1096004B1, “Pro-fragrance compounds” (THE PROCTER & GAMBLE COMPANY, priority 1996, dated 1997).

Experiment: Pro-Fragrant Hydrolysis Test (hydrolysis half-life by UV/Vis spectroscopy)
Format: physicochemical
Details: acid hydrolysis at pH 0 (1N HCl), 90/10 dioxane/water, 30°C
Experimental: Hydrolysis half-life is the measurement used to determine the ease with which the pro-fragrance compound undergoes acid hydrolysis and thereby releases its fragrance component(s) upon exposure to acid conditions. […] Preferably, pro-fragrance of the invention has a half-life at pH 2 of less than 60 minutes. For granular detergents, the more reactive pro-fragrances, that is, those with half-life at […] of less than one minute, are most suitable, although those having a half-life of less than 60 minutes at pH 0 are also useful. […]
All measurements are carried out using a Hewlett Packard 8452 A Diode Array Spectrophotometer using quartz 1 cm path length cuvette cells. […] The pH's are measured using an Orion 230 A standardized with pH 4 and pH 7 buffers. […]
Pro-fragrance is weighed out in a 10.00 ml volumetric flask using an analytical balance (Mettler AE 200) Precision is 1/10 mg. […] Hydrolysis time is measured, starting upon addition of the acid. […] The absorbance of the pro-fragrance solution (At) is followed at a regular series of time intervals, and the cuvette is kept in the water-bath at the above-indicated temperature between measurements. […] The wavelength at which the hydrolysis is followed is chosen at the wavelength of the absorbance maximum of the parent aldehyde or ketone.
Reaction half-lifes are determined using conventional procedures. […]

For `CC(C)=CCCC(C)=CC(OC/C=C(\C)CCC=C(C)C)OC/C=C(\C)CCC=C(C)C` [Example 1, Digeranyl Citral Acetal], the “t 1/2 at 0 pH” value was “less than one”.
